Holding throughout (format): cell-based, human
In assay [1] the test system is SF188 cells stably expressing Bcl-xL. Briefly: Akt/PI3K inhibitor treatment, media metabolite analysis (glucose, lactate, glutamine, ammonia). To be noted: 8 hours, medium analysed.
Description: SF188 cells stably expressing Bcl-xL were treated with AktiVIII at doses ranging from 0-20 μM. Medium was collected and analyzed for glucose, lactate, glutamine, and ammonia. The rates shown were calculated from the difference in metabolite concentration between the medium at the time point shown and fresh medium. The data points presented are the mean±SD of triplicate samples.
SF188 cells stably expressing Bcl-xL were plated at a density of 4×10^5 cells in E-well plate format, and incubated in DMEM with 10% FCS for 36 hours prior to treatment with AKT inhibitor VIII (Calbiochem) at 0, 0.1, 2, 5, and 10 μM concentrations in triplicate. After 8 hours, medium samples were collected for metabolite analysis, and viable cells were counted using trypan blue exclusion.
Media glucose, glutamine, lactate, and ammonia concentrations were analyzed using the Nova Biomedical Flex Analyzer (Waltham, Mass.).
The subject of the next assay is shCTRL SF188 cells. Briefly: AOA treatment of SF188 cells transduced with control shRNA, viability by trypan blue dye exclusion. The note with it: P<0.01. How it is done:
(§1) (A) Myc-suppressed SF188 cells are resistant to glutamine starvation. shMYC and shCTRL SF188 cells, described in FIG. 3B, were allowed to plate in the presence of glutamine and then cultured in the absence of glutamine. Cell viability was determined at the time points shown by trypan blue dye exclusion. The data points shown represent the mean±SD of triplicate samples. (B) Myc-suppressed SF188 cells are resistant to an inhibitor of glutaminolysis. shMYC and shCTRL SF188 cells, described in FIG. 3B, were allowed to plate in the presence of glutamine and then were treated with 500 μM aminooxyacetate (AOA). Cell viability was determined at the time points shown by trypan blue dye exclusion. AOA-treated shCTRL cells were also treated with 7 mM dimethyl α-ketoglutarate (AOA+α-ketoglutarate). The data points shown represent the mean±SD of triplicate samples.
(§2) Lentivirus was packaged in 293T cells co-transfected with pLKO.1-puro c-Myc or Luciferase-control shRNA plasmid (Sigma) in addition to the pVSV-G and pCMVdelta8.2 helper plasmids using lipofectamine 2000 (Sigma). […]
(§3) SF188 cells were treated with AOA (Sigma) at doses ranging from 500 nM-500 μM and viability was assessed 24 h post-treatment. […] After allowing to plate overnight, cells were treated with 500 μM for 24 h, and then viability was assessed using trypan blue dye exclusion.

The test system of the next assay is shMYC SF188 cells. Nature of the assay: AOA treatment of SF188 cells transduced with MYC-shRNA, viability by trypan blue dye exclusion. The note with it: 500 μM AOA, 24 h, P<0.01. How it is done:
as §1, §2, §3

In assay [2] the test system is SF188 cells. Briefly: AOA dose-finding, viability of SF188 cells. The note with it: doses 500 nM-500 μM, viability 24 h post-treatment. How it is done: SF188 cells (UC Brain Tumor Research Center, SF, CA) and SV40-immortalized MEF stably transfected with MycER (a gift from Drs. A T Tikhonenko and R. A. Amaravadi of University of Pennsylvania, Philadelphia, Pa.) were cultured in DMEM (Invitrogen), 10% FBS (Gemini Biosystems), 100 units/ml Penicillin, 100 ug/ml Streptomycin, 25 mM glucose, and 6 mM L-glutamine at 37° C. in a 5% CO2 incubator. To avoid depleting […], all experiments were carried out under subconfluent conditions. For glutamine starvation experiments, DMEM without glutamine (Invitrogen) was supplemented with 10% dialyzed FBS (Gemini Biosystems). For metabolic tracing experiments, DMEM without glutamine and with 10% dialyzed FBS was supplemented with either L-glutamine that was unenriched or with L-[U-^13C5]glutamine (Isotec), [U-^14C5]glutamine (GE Amersham), and [γ-^15N]glutamine (Cambridge Isotope Laboratories). DMEM without glucose (Sigma) was supplemented with [U-^14C6]glucose (Sigma). To activate MycER, cells were incubated with 200 nM 4-hydroxytamoxifen for 24 hours.
SF188 cells were treated with AOA (Sigma) at doses ranging from 500 nM-500 μM and viability was assessed 24 h post-treatment. Moreadith R W & Lehninger A L (1984) J. Biol. Chem. 259(10):6215-6221. […] After allowing to plate overnight, cells were treated with 500 μM for 24 h, and then viability was assessed using trypan blue dye exclusion.

For assay [3], the system named is SF188 cells. Briefly: Glutamine starvation of SF188 cells with alpha-ketoglutarate replacement, viability by trypan blue dye exclusion. The note with it: glutamine replaced with 7 mM dimethyl α-ketoglutarate, 25 mM glucose in medium. How it is done: FIG. 1 concerns glutamine catabolism in the human glioma line SF188. (A) Protein synthesis is a minor fate of glutamine carbon. SF188 cells were cultured in medium supplemented with 0.01% [^14C-U5]glutamine relative to unenriched glutamine for 4 h. [^14C-U5]glutamine in SSA precipitated protein (striped bar) and total glutamine consumed from the medium (grey bar) are presented as the mean±standard deviation (SD) of four independent experiments. (B) The requirement for glutamine can be satisfied by alpha-ketoglutarate. SF188 cells were allowed to plate in complete medium and then cultured in either glutamine-depleted medium (−glutamine), complete medium (+glutamine), or glutamine-depleted medium supplemented with 7 mM dimethyl α-ketoglutarate (−glutamine +α-ketoglutarate). Cell viability was determined at the time points shown by trypan blue dye exclusion. The data presented are the mean±SD of triplicate samples. Representative data from one of three independent experiments are shown.
SF188 cells (UC Brain Tumor Research Center, SF, CA) and SV40-immortalized MEF stably transfected with MycER (a gift from Drs. A T Tikhonenko and R. A. Amaravadi of University of Pennsylvania, Philadelphia, Pa.) were cultured in DMEM (Invitrogen), 10% FBS (Gemini Biosystems), 100 units/ml Penicillin, 100 ug/ml Streptomycin, 25 mM glucose, and 6 mM L-glutamine at 37° C. in a 5% CO2 incubator. […]

Here are results for three compounds from US20110301153A1, “METHODS OF TREATING CANCER” (The Trustees of the University of Pennsylvania, priority 2008, published 2011).

As to `O=c1[nH]c2ccccc2n1C1CCN(Cc2ccc(-c3nc4cc5[nH]cnc5cc4nc3-c3ccccc3)cc2)CC1` [AKT inhibitor VIII], in assay [1], the ammonia production entry is on record as “neither glutamine metabolism nor ammonia production was inhibited”; the “glucose metabolism (consumption)” value is “suppressed glucose metabolism and lactate production in a dose-dependent fashion”; the “glutamine metabolism (consumption)” value was “neither glutamine metabolism nor ammonia production was inhibited”; the lactate production result is “suppressed glucose metabolism and lactate production in a dose-dependent fashion”.
As to `NOCC(=O)O` [AOA, aminooxyacetate], the “cell viability / death of cells transduced with control shRNA” value with shCTRL SF188 cells (500 μM AOA, 24 h, trypan blue dye exclusion) was “selectively induced the death”. The “cell viability of cells transduced with MYC-shRNA” value with shMYC SF188 cells is “without affecting the viability”. In the assay with SF188 cells [2], the “lowest dose that killed a significant fraction of the cells” value amounted to 500 µM.
As to `COC(=O)CCC(=O)C(=O)OC` [dimethyl α-ketoglutarate], the “reversal of AOA-induced toxicity (death)” value in the assay on shCTRL SF188 cells (7 mM dimethyl α-ketoglutarate added to AOA-treated SF188 parental and control transduced cells) is “completely suppressed the death”. Besides, the “cell death in glutamine-deficient medium” value in the assay on SF188 cells [3] is “suppressed the cell death”.
